# Reference: ChEMBL document CHEMBL2321853, “Novel acylethanolamide derivatives that modulate body weight through enhancement of hypothalamic pro-opiomelanocortin (POMC) and/or decreased neuropeptide Y (NPY)” (J Med Chem, 2013)
# Activity calls are given as the source filed them. The rule behind the calls is not given here.
# System: Hypothalamus
# Assay: Effect on FAAH gene expression in Sabra mouse hypothalamus assessed as change in mRNA level at 1 mg/kg, ip administered on day 8, 9, 10, 11, 14, 18, 24 and 32 by RT-PCR analysis relative to GAPDH
# Format: functional
# Conditions: route intraperitoneal
row,SMILES,Activity [%]
1,CCCCCCCCCCCCCCCC(=O)N[C@H](CO)C(C)C,15
2,CCCCCCCC/C=C/CCCCCCCC(=O)N[C@H](CO)C(C)C,15

# System: Mus musculus
# Assay: Antiobesity activity in Sabra mouse assessed as change in food consumption at 1 mg/kg, ip administered on day 8, 9, 10, 11, 14, 18, 24 and 32 measured after 6 weeks relative to control
# Format: functional
# Conditions: route intraperitoneal
row,SMILES,Activity [%]
1,CCCCCCCCCCCCCCCC(=O)N[C@H](CO)C(C)C,81.4
2,CCCCCCCC/C=C/CCCCCCCC(=O)N[C@H](CO)C(C)C,104.5

# System: Hypothalamus
# Assay: Effect on 5HT1A gene expression in Sabra mouse hypothalamus assessed as change in mRNA level at 1 mg/kg, ip administered on day 8, 9, 10, 11, 14, 18, 24 and 32 by RT-PCR analysis relative to GAPDH
# Format: functional
# Conditions: route intraperitoneal
row,SMILES,Activity [%]
1,CCCCCCCCCCCCCCCC(=O)N[C@H](CO)C(C)C,-1
2,CCCCCCCC/C=C/CCCCCCCC(=O)N[C@H](CO)C(C)C,-9

# System: Mus musculus
# Assay: Antiobesity activity in Sabra mouse assessed as change in body weight at 1 mg/kg, ip administered on day 8, 9, 10, 11, 14, 18, 24 and 32 measured on day 9 relative to control
# Format: functional
# Conditions: route intraperitoneal
row,SMILES,Activity [%]
1,CCCCCCCCCCCCCCCC(=O)N[C@H](CO)C(C)C,-2.1
2,CCCCCCCC/C=C/CCCCCCCC(=O)N[C@H](CO)C(C)C,-0.1

# System: Hypothalamus
# Assay: Effect on POMC gene expression in Sabra mouse hypothalamus assessed as change in mRNA level at 1 mg/kg, ip administered on day 8, 9, 10, 11, 14, 18, 24 and 32 by RT-PCR analysis relative to GAPDH
# Format: functional
# Conditions: route intraperitoneal
row,SMILES,Activity [%]
1,CCCCCCCCCCCCCCCC(=O)N[C@H](CO)C(C)C,2
2,CCCCCCCC/C=C/CCCCCCCC(=O)N[C@H](CO)C(C)C,10

# System: Mus musculus
# Assay: Antiobesity activity in Sabra mouse assessed as change in food consumption at 1 mg/kg, ip administered on day 8, 9, 10, 11, 14, 18, 24 and 32 measured after 3 weeks relative to control
# Format: functional
# Conditions: route intraperitoneal
row,SMILES,Activity [%]
1,CCCCCCCCCCCCCCCC(=O)N[C@H](CO)C(C)C,96.8
2,CCCCCCCC/C=C/CCCCCCCC(=O)N[C@H](CO)C(C)C,108.1

# System: Mus musculus
# Assay: Antiobesity activity in Sabra mouse assessed as change in body weight at 1 mg/kg, ip administered on day 8, 9, 10, 11, 14, 18, 24 and 32 measured on day 14 relative to control
# Format: functional
# Conditions: route intraperitoneal
row,SMILES,Activity [%]
1,CCCCCCCCCCCCCCCC(=O)N[C@H](CO)C(C)C,-2.2
2,CCCCCCCC/C=C/CCCCCCCC(=O)N[C@H](CO)C(C)C,1

# System: Hypothalamus
# Assay: Effect on CAMKK2 gene expression in Sabra mouse hypothalamus assessed as change in mRNA level at 1 mg/kg, ip administered on day 8, 9, 10, 11, 14, 18, 24 and 32 by RT-PCR analysis relative to GAPDH
# Format: functional
# Conditions: route intraperitoneal
row,SMILES,Activity [%]
1,CCCCCCCCCCCCCCCC(=O)N[C@H](CO)C(C)C,15
2,CCCCCCCC/C=C/CCCCCCCC(=O)N[C@H](CO)C(C)C,62

# System: Mus musculus
# Assay: Antiobesity activity in Sabra mouse assessed as change in body weight at 1 mg/kg, ip administered on day 8, 9, 10, 11, 14, 18, 24 and 32 measured on day 25 relative to control
# Format: functional
# Conditions: route intraperitoneal
row,SMILES,Activity [%]
1,CCCCCCCCCCCCCCCC(=O)N[C@H](CO)C(C)C,-4.9
2,CCCCCCCC/C=C/CCCCCCCC(=O)N[C@H](CO)C(C)C,0.7

# Molecular target: Transient receptor potential cation channel subfamily V member 1 (Rattus norvegicus) (UniProt O35433)
# Sequence (O35433 whole entry): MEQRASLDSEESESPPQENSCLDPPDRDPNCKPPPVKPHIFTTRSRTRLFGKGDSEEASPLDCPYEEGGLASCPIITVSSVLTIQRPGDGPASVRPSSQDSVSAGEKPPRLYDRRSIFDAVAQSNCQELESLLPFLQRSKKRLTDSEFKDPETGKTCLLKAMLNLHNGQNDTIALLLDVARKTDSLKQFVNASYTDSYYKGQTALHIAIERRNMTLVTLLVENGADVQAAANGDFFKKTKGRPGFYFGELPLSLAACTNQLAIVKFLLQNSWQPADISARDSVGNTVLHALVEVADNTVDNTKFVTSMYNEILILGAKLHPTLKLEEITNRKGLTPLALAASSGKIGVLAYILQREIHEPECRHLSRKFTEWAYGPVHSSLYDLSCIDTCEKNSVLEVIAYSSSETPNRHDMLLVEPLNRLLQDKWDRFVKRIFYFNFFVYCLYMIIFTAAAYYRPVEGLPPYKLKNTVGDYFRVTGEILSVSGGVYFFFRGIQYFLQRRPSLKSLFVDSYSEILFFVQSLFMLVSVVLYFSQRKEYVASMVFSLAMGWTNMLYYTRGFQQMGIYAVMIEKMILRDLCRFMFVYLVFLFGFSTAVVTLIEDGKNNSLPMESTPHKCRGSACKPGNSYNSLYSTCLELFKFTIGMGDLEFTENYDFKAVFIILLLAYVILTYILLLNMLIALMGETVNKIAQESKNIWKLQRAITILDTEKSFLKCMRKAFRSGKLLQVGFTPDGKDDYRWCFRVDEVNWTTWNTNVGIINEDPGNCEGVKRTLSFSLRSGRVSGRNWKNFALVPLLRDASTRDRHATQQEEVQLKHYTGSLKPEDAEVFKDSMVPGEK
# Assay: Displacement of [3H]resiniferatoxin from TRPV1 receptor in Wistar rat spinal cord at 10 uM relative to control
# Conditions: not given
row,SMILES,inhibition [%]
1,CCCCCCCC/C=C/CCCCCCCC(=O)N[C@H](CO)C(C)C,6

# System: Mus musculus
# Assay: Antiobesity activity in Sabra mouse assessed as change in body weight at 1 mg/kg, ip administered on day 8, 9, 10, 11, 14, 18, 24 and 32 measured on day 21 relative to control
# Format: functional
# Conditions: route intraperitoneal
row,SMILES,Activity [%]
1,CCCCCCCCCCCCCCCC(=O)N[C@H](CO)C(C)C,3
2,CCCCCCCC/C=C/CCCCCCCC(=O)N[C@H](CO)C(C)C,-0.1

# System: Hypothalamus
# Assay: Effect on CART gene expression in Sabra mouse hypothalamus assessed as change in mRNA level at 1 mg/kg, ip administered on day 8, 9, 10, 11, 14, 18, 24 and 32 by RT-PCR analysis relative to GAPDH
# Format: functional
# Conditions: route intraperitoneal
row,SMILES,Activity [%]
1,CCCCCCCCCCCCCCCC(=O)N[C@H](CO)C(C)C,-13
2,CCCCCCCC/C=C/CCCCCCCC(=O)N[C@H](CO)C(C)C,-11

# System: Mus musculus
# Assay: Antiobesity activity in Sabra mouse assessed as change in body weight at 1 mg/kg, ip administered on day 8, 9, 10, 11, 14, 18, 24 and 32 measured on day 30 relative to control
# Format: functional
# Conditions: route intraperitoneal
row,SMILES,Activity [%]
1,CCCCCCCCCCCCCCCC(=O)N[C@H](CO)C(C)C,-7.1
2,CCCCCCCC/C=C/CCCCCCCC(=O)N[C@H](CO)C(C)C,0.2

# System: Mus musculus
# Assay: Antiobesity activity in Sabra mouse assessed as change in body weight at 1 mg/kg, ip administered on day 8, 9, 10, 11, 14, 18, 24 and 32 measured on day 39 relative to control
# Format: functional
# Conditions: route intraperitoneal
row,SMILES,Activity [%]
1,CCCCCCCCCCCCCCCC(=O)N[C@H](CO)C(C)C,-6.7
2,CCCCCCCC/C=C/CCCCCCCC(=O)N[C@H](CO)C(C)C,0

# Molecular target: Cannabinoid receptor 1 (Homo sapiens) (UniProt P21554)
# Sequence (P21554 whole entry): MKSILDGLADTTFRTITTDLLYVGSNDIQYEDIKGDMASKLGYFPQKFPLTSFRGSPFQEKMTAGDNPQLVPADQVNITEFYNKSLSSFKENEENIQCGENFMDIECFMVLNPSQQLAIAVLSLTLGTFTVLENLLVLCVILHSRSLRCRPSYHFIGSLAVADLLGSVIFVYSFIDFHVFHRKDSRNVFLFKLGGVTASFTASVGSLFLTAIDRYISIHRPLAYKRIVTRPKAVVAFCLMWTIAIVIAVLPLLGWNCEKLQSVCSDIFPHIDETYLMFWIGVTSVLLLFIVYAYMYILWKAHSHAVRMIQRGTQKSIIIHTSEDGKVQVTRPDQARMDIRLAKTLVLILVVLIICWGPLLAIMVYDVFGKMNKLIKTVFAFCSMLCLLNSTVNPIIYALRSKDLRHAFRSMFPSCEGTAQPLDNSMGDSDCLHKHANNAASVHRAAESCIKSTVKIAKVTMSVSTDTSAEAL
# Assay: Displacement of [3H]SR141716A from human CB1 receptor expressed in rat Chem-1 cell membrane at 10 uM relative to control
# Format: cell membranes
# Conditions: not given
row,SMILES,inhibition [%]
1,CCCCCCCCCCCCCCCC(=O)N[C@H](CO)C(C)C,21
2,CCCCCCCC/C=C/CCCCCCCC(=O)N[C@H](CO)C(C)C,8

# Molecular target: T1, Peroxisome proliferator-activated receptor alpha (Homo sapiens) (UniProt Q07869)
# T1 sequence (whole entry): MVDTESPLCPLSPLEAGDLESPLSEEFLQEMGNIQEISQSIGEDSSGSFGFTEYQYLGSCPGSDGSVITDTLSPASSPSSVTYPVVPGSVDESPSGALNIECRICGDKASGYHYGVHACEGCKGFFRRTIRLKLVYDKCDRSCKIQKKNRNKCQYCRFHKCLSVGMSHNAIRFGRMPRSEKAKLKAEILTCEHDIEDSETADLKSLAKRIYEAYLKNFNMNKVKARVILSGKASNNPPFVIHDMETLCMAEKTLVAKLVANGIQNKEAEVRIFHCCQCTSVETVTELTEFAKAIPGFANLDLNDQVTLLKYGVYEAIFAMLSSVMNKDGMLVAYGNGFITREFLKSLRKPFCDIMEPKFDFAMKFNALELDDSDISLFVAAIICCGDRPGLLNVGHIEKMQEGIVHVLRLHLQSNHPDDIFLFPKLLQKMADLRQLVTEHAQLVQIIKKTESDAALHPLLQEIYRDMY
# Assay: Binding affinity to human recombinant PPARalpha expressed in Escherichia coli at 10 uM for 16 hrs by spectrofluorimetric analysis relative to control
# Conditions: not given
row,SMILES,Activity [%]
1,CCCCCCCCCCCCCCCC(=O)N[C@H](CO)C(C)C,2
2,CCCCCCCC/C=C/CCCCCCCC(=O)N[C@H](CO)C(C)C,0

# System: Mus musculus
# Assay: Antiobesity activity in Sabra mouse assessed as change in body weight at 1 mg/kg, ip administered on day 8, 9, 10, 11, 14, 18, 24 and 32 measured on day 4 relative to control
# Format: functional
# Conditions: route intraperitoneal
row,SMILES,Activity [%]
1,CCCCCCCCCCCCCCCC(=O)N[C@H](CO)C(C)C,1.9
2,CCCCCCCC/C=C/CCCCCCCC(=O)N[C@H](CO)C(C)C,3.1

# Molecular target: Cannabinoid receptor 2 (Homo sapiens) (UniProt P34972)
# Sequence (P34972 whole entry): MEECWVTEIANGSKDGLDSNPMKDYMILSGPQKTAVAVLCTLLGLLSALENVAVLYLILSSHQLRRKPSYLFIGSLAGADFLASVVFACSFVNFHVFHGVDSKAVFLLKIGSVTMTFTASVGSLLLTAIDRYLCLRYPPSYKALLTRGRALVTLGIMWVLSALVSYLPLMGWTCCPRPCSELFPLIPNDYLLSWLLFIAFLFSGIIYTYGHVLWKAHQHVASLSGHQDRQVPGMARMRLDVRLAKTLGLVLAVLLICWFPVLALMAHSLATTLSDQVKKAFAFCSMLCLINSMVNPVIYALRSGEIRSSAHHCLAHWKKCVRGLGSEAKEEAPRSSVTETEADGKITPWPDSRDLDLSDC
# Assay: Displacement of [3H]WIN-55,212-2 from human recombinant CB2 receptor expressed in CHO-K1 cells at 10 uM relative to control
# Format: cell-based
# Conditions: not given
row,SMILES,inhibition [%]
1,CCCCCCCCCCCCCCCC(=O)N[C@H](CO)C(C)C,0
2,CCCCCCCC/C=C/CCCCCCCC(=O)N[C@H](CO)C(C)C,5

# System: Mus musculus
# Assay: Antiobesity activity in Sabra mouse assessed as change in food consumption at 1 mg/kg, ip administered on day 8, 9, 10, 11, 14, 18, 24 and 32 measured after 2 weeks relative to control
# Format: functional
# Conditions: route intraperitoneal
row,SMILES,Activity [%]
1,CCCCCCCCCCCCCCCC(=O)N[C@H](CO)C(C)C,97
2,CCCCCCCC/C=C/CCCCCCCC(=O)N[C@H](CO)C(C)C,98.5

# System: Hypothalamus
# Assay: Effect on NPY gene expression in Sabra mouse hypothalamus assessed as change in mRNA level at 1 mg/kg, ip administered on day 8, 9, 10, 11, 14, 18, 24 and 32 by RT-PCR analysis relative to GAPDH
# Format: functional
# Conditions: route intraperitoneal
row,SMILES,Activity [%]
1,CCCCCCCCCCCCCCCC(=O)N[C@H](CO)C(C)C,-52
2,CCCCCCCC/C=C/CCCCCCCC(=O)N[C@H](CO)C(C)C,69

# System: Mus musculus
# Assay: Increase in motor activity Sabra mouse at 1 mg/kg, ip administered on day 8, 9, 10, 11, 14, 18, 24 and 32 measured on day 14 by open field test
# Format: functional, organism-based
# Parameters: dose 1 mg/kg
# Conditions: not given
row,SMILES,Activity
1,CCCCCCCCCCCCCCCC(=O)N[C@H](CO)C(C)C,inactive

# System: Mus musculus
# Assay: Antiobesity activity in Sabra mouse assessed as change in food consumption at 1 mg/kg, ip administered on day 8, 9, 10, 11, 14, 18, 24 and 32 measured after 4 weeks relative to control
# Format: functional
# Conditions: route intraperitoneal
row,SMILES,Activity [%]
1,CCCCCCCCCCCCCCCC(=O)N[C@H](CO)C(C)C,85.9
2,CCCCCCCC/C=C/CCCCCCCC(=O)N[C@H](CO)C(C)C,104.9

# System: Mus musculus
# Assay: Antiobesity activity in Sabra mouse assessed as change in body weight at 1 mg/kg, ip administered on day 8, 9, 10, 11, 14, 18, 24 and 32 measured on day 35 relative to control
# Format: functional
# Conditions: route intraperitoneal
row,SMILES,Activity [%]
1,CCCCCCCCCCCCCCCC(=O)N[C@H](CO)C(C)C,-8.5
2,CCCCCCCC/C=C/CCCCCCCC(=O)N[C@H](CO)C(C)C,1.6

# Molecular target: T2, Fatty-acid amide hydrolase 1 (Rattus norvegicus) (UniProt P97612)
# T2 sequence (whole entry): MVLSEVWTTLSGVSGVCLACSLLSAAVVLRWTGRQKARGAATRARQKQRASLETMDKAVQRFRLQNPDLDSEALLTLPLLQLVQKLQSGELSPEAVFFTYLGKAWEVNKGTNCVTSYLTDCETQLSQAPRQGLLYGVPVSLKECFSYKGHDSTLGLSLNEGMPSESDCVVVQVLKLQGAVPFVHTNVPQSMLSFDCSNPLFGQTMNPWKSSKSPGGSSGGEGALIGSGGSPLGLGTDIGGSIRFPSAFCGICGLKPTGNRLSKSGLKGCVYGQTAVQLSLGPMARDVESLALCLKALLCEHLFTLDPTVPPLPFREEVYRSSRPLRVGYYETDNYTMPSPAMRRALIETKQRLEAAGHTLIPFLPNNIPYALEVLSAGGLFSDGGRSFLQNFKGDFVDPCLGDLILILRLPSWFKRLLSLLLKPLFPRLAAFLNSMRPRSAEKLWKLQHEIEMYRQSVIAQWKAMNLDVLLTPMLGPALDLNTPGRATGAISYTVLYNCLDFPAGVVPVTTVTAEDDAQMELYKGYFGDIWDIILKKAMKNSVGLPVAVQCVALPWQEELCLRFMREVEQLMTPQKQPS
# Assay: Inhibition of rat brain FAAH using [3H]anandamide as substrate at 10 uM preincubated for 15 mins before substrate addition relative to control
# Conditions: not given
row,SMILES,inhibition [%]
1,CCCCCCCC/C=C/CCCCCCCC(=O)N[C@H](CO)C(C)C,7

# System: Mus musculus
# Assay: Antiobesity activity in Sabra mouse assessed as change in food consumption at 1 mg/kg, ip administered on day 8, 9, 10, 11, 14, 18, 24 and 32 measured after 5 weeks relative to control
# Format: functional
# Conditions: route intraperitoneal
row,SMILES,Activity [%]
1,CCCCCCCCCCCCCCCC(=O)N[C@H](CO)C(C)C,97.4
2,CCCCCCCC/C=C/CCCCCCCC(=O)N[C@H](CO)C(C)C,109.2
